Reference: US20180042873A1, “NOVEL METHODS” (Aeromics, Inc., priority 2014, published 2018)

What was measured:
[1] = tested on: explanted heart from BALB/c mice; assay: Cardiac explant experiment: apoptosis by Annexin V flow cytometry after 8 h Cold Ischemic Storage; design: species or system mouse; settings: 10 μM in Ringer's solution, 8 hours cold storage at 0-4° C.
Method: This experiment is a model for determining the extent of apoptosis occurring in an explanted heart from BALB/c mice. Hearts are perfused with Ringer's solution either supplemented with 10 μM of N-[3,5-bis(trifluoromethyl)phenyl]-5-chloro-2-hydroxybenzamide (Compound 1), or without such supplementation. The explanted hearts are then placed in Cold Ischemic Storage (at 0-4° C.) in their respective buffer solutions for 8 hours. The hearts are then photographed and triturated for analysis of apoptosis using Annexin V flow cytometry. Annexin V is used to label phosphatidylserine on the surface of cells, and this is a conventional marker for cells that have undergone apoptosis. […] In contrast, hearts maintained in the APQ4-inhibitor supplemented Ringer's solution show only about 8% apoptotic cells.

[2] = tested on: cardiac allograft (BalbC donor heart in B6 recipient); assay: Cardiac allograft rejection model (intraabdominal heterotopic vascularized cardiac transplantation between genetically mismatched mice); assay type: in vivo, mouse; settings: for survival after 20 days: BalbC heart into B6, after 20 days; for survival after 50 days: BalbC heart into B6, after 50 days
Method: The ability of an APQ inhibitor of the present disclosure to protect against transplant rejection is determined in an intraabdominal heterotopic vascularized cardiac transplantation model between genetically mismatched mice. Four conditions are compared: the use of an APQ4 inhibitor alone, the use of a CTLA4 Ig alone, the combination of an APQ4 inhibitor with a CTLA4 Ig, and a control.
The donor mouse (BalbC, fully genetically mismatched with respect to the recipient mouse which is B6, C57BL/6) is given a 10 mg/kg IP bolus of 2-((3,5-bis(trifluoromethyl)phenyl)carbamoyl)-4-chlorophenyl dihydrogen phosphate in TrisBase 30 minutes prior to surgery.
Before removing the heart, the donor is perfused with Ringer's solution containing 10 μM N-[3,5-bis(trifluoromethyl)phenyl]-5-chloro-2-hydroxybenzamide. After removal from the donor, the heart is stored at 0-4° C. for 8 hours in Ringer's solution containing 10 μM N-[3,5-bis(trifluoromethyl)phenyl]-5-chloro-2-hydroxybenzamide (Cold Ischemic Storage).
30 Minutes prior to surgery, the recipient mouse is given a 10 mg/kg IP bolus of 2-((3,5-bis(trifluoromethyl)phenyl)carbamoyl)-4-chlorophenyl dihydrogen phosphate in TrisBase. The heart is then transplanted into the recipient mouse (B6 mouse) using the vascularized heterotopic cardiac transplantation model. After closing, the recipient mouse receives 10 mg/kg IP injection of 2-((3,5-bis(trifluoromethyl)phenyl)carbamoyl)-4-chlorophenyl dihydrogen phosphate in TrisBase every 6 hours for 5 days.
The recipient mouse (B6) is administered a single dose of Belatacept IP at 10 mg/kg on the day of the transplant surgery as well as a single dose of Belatacept IP at 10 mg/kg 24 hours after surgery.
As a negative control, both the donor and recipient mice receive IP administration of TrisBase with neither an APQ4 inhibitor nor a CTLA4 Ig. Results
The recipient mice are monitored until their hearts stops beating.

## O=C(Nc1cc(C(F)(F)F)cc(C(F)(F)F)c1)c1cc(Cl)ccc1O [Compound 1, N-[3,5-bis(trifluoromethyl)phenyl]-5-chloro-2-hydroxybenzamide]
[1]
  apoptotic cells: about 8%

## Belatacept [CTLA4 Ig, reference compound]
[2]
  survival after 20 days: approximately 60%
  survival after 50 days: about 40%
[2]; about 60 days to 150 days
  survival from about 60 days through the end of monitoring at 150 days: about 13%

## O=C(Nc1cc(C(F)(F)F)cc(C(F)(F)F)c1)c1cc(Cl)ccc1OP(=O)(O)O [APQ4 inhibitor, 2-((3,5-bis(trifluoromethyl)phenyl)carbamoyl)-4-chlorophenyl dihydrogen phosphate]
[2]
  survival after 20 days: about 30%
  survival after 50 days: about 10%
[2]; about 60 days to 120 days
  survival from about 60 days through the end of monitoring at 120 days: about 5%
